# Results reported in patent US11352350B2, “IRAK degraders and uses thereof” (Kymera Therapeutics, Inc., priority 2018, dated 2022).
# Key:
# OCI-LY10 cells = assay: In vitro combination studies in OCI-LY10 (Chou-Talalay); format: cell-based, human
# Experimental: The ABC-DLBCL cell line OCI-LY10 was MV4-11 cells were maintained in IMDM (Invitrogen, supplemented with 20% heat inactivated fetal bovine serum (Life Technologies, Grand Island, N.Y) plus+BME. Cultures were maintained in a humidified atmosphere including 5% CO2. Studies were performed using OCI-LY10 cells in vitro to evaluate the anti-proliferative effect of a combination of two agents together on cell growth. The cell counts were measured by ATP quantitation using the Promega Cell Titer Glo kit and luminescence values corresponded to the amount of ATP in a given well. Compounds evaluated for synergy were tested in a range which was bracketed around the IC50's. The compounds were plated to a 384 well plate in a matrix format which includes increasing concentrations of each drug in the combination in a constant ratio, in addition to the effect of each compound alone in the study. […] DMSO concentration was less than 0.2% v/v.
# The drug combination analysis was performed utilizing the Chou-Talalay method [Chou TC Pharmacological Reviews 2006]. Maximum and minimum inhibition (DMSO alone) controls were used in each plate to calculate fraction affected (Fa) of a test well. […] Synergy was determined using the software package Calcusyn by Biosoft. Graphs representing values of combination index (CI) versus Fractional effect (Fa) known as Fa-CI plots were generated and synergy was evaluated.
# IRAK4 = IRAK4 (Homo sapiens (Human), UniProt Q9NWZ3); assay: Deep tandem mass tag (TMT) proteomics in OCI-LY10; format: cell-based; details: OCI-LY10, 8 hours
# Chain of IRAK4 (Q9NWZ3 whole entry): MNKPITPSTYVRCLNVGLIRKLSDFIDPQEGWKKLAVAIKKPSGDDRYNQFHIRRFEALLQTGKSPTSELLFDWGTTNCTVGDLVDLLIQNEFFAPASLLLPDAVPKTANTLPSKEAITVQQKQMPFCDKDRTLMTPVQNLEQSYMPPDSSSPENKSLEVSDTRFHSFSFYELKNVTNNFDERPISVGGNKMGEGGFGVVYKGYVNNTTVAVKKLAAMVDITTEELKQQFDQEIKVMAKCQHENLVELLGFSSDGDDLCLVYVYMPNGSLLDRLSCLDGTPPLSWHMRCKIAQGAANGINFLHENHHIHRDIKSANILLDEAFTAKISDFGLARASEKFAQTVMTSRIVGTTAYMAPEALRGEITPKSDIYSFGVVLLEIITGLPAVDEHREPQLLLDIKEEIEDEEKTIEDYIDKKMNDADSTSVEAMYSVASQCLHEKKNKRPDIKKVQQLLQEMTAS
# Experimental: Total protein was isolated from OCI-LY10 cells treated with 10 nM I-30, 30 nM I-30 and 30 nM 2-{2-[(cyclopropylmethyl)amino]pyridin-4-yl}-N-[3-(difluoromethyl)-1-[4-({[2-(2-{3-[3-methyl-1-(1-methyl-2,6-dioxopiperidin-3-yl)-2-oxo-2,3-dihydro-1H-1,3-benzodiazol-4-yl]propoxy}ethoxy)ethyl]amino}methyl)phenyl]-1H-pyrazol-4-yl]-1,3-oxazole-4-carboxamide for 8 hours. Vehicle (DMSO)-treated cells were used as controls. Protein lysates, 2 biological replicates per condition, were prepared at 4 C in 8M urea, 75 mM NaCl, 1 mM EDTA in 50 mM Tris HCl (pH 8), 10 mM NaF, phosphatase inhibitor cocktail 2 (1:100; Sigma, P5726) and cocktail 3 (1:100; Sigma, P0044), 2 μg/mL aprotinin (Sigma, A6103), 10 μg/mL Leupeptin (Roche, 11017101001), and 1 mM PMSF (Sigma, 78830). Lysates were spun at 20,000 rcf for 10 min and supernatant (containing extracted proteins) was transferred to a clean microcentrifuge tube. Protein concentrations were determined using the Pierce BCA assay. […] Online fractionation was performed using a nanoflow Proxeon EASY-nLC 1200 UHPLC system (Thermo Fisher Scientific) and separated peptides were analyzed on a benchtop Orbitrap Q Exactive plus mass spectrometer (Thermo Fisher Scientific). All data were analyzed using Spectrum Mill software package (Agilent Technologies). […] In total, 10,992 proteins were quantified. […]
compound,measurement,setting,value
"CN(CCCOCCCc1cccc2c1n(C)c(=O)n2C1CCC(=O)NC1=O)C[C@H]1CC[C@H](n2cc(NC(=O)c3coc(-c4ccnc(NCC5CC5)c4)n3)c(C(F)F)n2)CC1 (mixture of isomers) [I-30, 2-[2-(Cyclopropylmethylamino)-4-pyridyl]-N-[3-(difluoromethyl)-1-[4-[[3-[3-[1-(2,6-dioxo-3-piperidyl)-3-methyl-2-oxo-benzimidazol-4-yl]propoxy]propyl-methyl-amino]methyl]cyclohexyl]pyrazol-4-yl] oxazole-4-carboxamide]","apoptosis, combined with a BTK inhibitor","OCI-LY10 cells; OCI-LY10 bearing MYD88 L265P and CD79 mutations, within 72 h, FIG. 12",greater than additive increase in apoptosis
same,synergy with BTK inhibition vs cell viability,OCI-LY10 cells; four day Cell Titer Glo read out,synergistic
same,selectivity for IRAK4 vs. other proteins in OCI-LY10 (proteomics),IRAK4,"highly selective for IRAK4 vs. >10,000 other proteins"
